In ChEMBL document CHEMBL1201862, “PubChem BioAssay data set” (2004):
One block for each compound: values may come before it. Active and inactive are the calls of the source.

Columns and labels:
Type in all cases: functional
[1] = biological target: BDNF/NT-3 growth factors receptor (Homo sapiens, UniProt Q16620);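 further: NTRK2 measured as one member of a broad kinome-wide kinase profiling panel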
[2] = biological target: Cyclin-dependent kinase 5 (Homo sapiens, UniProt Q00535);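 further: CDK5 measured as one member of a kinase profiling panel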
[3] = biological target: Calcium/calmodulin-dependent protein kinase type II subunit alpha (Homo sapiens, UniProt Q9UQM7); assay: Navigating the Kinome. Panel member name: CAMK2A
Chain of Calcium/calmodulin-dependent protein kinase type II subunit alpha (Q9UQM7 whole entry): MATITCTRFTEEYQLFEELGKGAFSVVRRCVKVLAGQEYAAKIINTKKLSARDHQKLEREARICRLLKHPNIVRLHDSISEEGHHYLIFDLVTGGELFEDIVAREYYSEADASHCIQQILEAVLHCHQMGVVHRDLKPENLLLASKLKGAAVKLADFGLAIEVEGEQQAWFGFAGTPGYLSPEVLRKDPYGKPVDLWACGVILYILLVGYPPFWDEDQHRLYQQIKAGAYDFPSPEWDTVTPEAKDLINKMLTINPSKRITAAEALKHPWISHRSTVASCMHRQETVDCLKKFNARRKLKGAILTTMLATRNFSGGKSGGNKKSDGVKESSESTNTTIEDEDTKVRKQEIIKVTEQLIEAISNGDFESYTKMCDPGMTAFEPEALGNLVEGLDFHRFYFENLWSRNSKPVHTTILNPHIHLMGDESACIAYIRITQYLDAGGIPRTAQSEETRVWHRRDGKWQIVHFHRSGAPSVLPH

[4] = biological target: Macrophage colony-stimulating factor 1 receptor (Homo sapiens, UniProt P07333);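 further: value comes from the Navigating the Kinome screening panel, CSF1R member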
[5] = biological target: Protein kinase C theta type (Homo sapiens, UniProt Q04759); assay: Navigating the Kinome. Panel member name: PRKCQ
[6] = biological target: Serine/threonine-protein kinase Nek2 (Homo sapiens, UniProt P51955)
Chain of Serine/threonine-protein kinase Nek2 (P51955 whole entry): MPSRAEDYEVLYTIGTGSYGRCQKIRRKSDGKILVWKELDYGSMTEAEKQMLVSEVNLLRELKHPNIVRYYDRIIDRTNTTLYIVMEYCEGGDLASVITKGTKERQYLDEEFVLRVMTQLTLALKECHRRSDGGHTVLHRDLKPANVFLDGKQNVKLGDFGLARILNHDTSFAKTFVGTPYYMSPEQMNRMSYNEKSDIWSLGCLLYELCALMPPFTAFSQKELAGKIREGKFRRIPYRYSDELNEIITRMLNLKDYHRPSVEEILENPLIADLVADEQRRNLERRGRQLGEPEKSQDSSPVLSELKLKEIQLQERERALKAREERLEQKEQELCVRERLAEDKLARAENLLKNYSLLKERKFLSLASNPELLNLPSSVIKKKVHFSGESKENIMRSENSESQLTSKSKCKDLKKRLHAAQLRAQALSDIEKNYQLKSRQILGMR

[7] = biological target: Cyclin-dependent kinase 9 (Homo sapiens, UniProt P50750);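 further: value from the CDK9 entry of a kinome-spanning kinase panel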
Activin receptor type-1 = Activin receptor type-1 (Homo sapiens, UniProt Q04771); assay: Navigating the Kinome. Panel member name: ACVR1
[8] = biological target: Tyrosine-protein kinase receptor TYRO3 (Homo sapiens, UniProt Q06418);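 further: TYRO3 value obtained as one member of a kinome-wide profiling panel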
Chain of Tyrosine-protein kinase receptor TYRO3 (Q06418 whole entry): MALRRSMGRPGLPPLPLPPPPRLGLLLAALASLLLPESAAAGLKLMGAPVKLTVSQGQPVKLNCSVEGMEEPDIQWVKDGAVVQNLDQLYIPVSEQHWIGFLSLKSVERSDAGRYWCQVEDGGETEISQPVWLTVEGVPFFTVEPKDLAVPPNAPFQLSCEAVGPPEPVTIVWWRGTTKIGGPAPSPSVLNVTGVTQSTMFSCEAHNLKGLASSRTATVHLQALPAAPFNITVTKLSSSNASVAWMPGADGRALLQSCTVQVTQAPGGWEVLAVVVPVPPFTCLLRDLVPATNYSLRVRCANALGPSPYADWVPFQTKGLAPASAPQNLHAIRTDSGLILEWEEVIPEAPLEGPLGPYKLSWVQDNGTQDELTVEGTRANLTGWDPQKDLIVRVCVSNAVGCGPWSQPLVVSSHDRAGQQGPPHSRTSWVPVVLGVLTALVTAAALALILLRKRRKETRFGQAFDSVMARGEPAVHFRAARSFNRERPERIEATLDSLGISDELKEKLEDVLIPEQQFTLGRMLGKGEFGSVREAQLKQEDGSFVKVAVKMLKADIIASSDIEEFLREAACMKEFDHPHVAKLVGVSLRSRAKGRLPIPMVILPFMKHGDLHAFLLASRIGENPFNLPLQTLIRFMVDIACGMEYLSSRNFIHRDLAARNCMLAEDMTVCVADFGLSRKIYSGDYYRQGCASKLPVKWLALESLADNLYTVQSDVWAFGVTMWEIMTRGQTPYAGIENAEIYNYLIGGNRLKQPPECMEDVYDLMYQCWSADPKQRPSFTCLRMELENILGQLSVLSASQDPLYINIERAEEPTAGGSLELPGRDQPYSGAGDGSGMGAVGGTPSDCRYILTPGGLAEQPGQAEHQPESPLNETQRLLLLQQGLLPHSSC

[9] = biological target: Dual specificity protein kinase CLK2 (Homo sapiens, UniProt P49760)
[10] = biological target: Serine/threonine-protein kinase D3 (Homo sapiens, UniProt O94806);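 further: determined within a kinase panel screen, with PRKCN as the panel member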
Chain of Serine/threonine-protein kinase D3 (O94806 whole entry): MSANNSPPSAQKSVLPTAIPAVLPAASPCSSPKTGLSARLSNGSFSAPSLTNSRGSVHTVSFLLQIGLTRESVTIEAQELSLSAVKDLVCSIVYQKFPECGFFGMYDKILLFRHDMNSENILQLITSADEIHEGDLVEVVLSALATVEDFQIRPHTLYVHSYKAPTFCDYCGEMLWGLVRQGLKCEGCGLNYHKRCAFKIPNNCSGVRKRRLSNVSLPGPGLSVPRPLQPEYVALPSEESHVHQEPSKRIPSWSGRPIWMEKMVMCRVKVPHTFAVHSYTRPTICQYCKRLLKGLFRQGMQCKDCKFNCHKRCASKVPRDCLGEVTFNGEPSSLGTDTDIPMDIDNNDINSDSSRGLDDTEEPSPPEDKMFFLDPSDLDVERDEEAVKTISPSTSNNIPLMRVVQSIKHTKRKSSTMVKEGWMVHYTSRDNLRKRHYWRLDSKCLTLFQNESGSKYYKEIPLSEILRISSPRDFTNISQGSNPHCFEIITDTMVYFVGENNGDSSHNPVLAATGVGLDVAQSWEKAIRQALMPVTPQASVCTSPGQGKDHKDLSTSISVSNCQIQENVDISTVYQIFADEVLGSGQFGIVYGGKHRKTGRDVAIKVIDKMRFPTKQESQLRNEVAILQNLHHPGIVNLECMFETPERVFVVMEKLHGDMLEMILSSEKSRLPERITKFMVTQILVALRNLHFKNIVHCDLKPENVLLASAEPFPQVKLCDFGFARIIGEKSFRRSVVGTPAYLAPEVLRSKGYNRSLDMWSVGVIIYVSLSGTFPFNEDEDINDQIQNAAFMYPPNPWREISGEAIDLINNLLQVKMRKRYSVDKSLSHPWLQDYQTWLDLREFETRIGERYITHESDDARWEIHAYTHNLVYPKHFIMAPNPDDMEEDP

[11] = biological target: Fibroblast growth factor receptor 1 (Homo sapiens, UniProt P11362)
[12] = biological target: Serine/threonine-protein kinase PAK 4 (Homo sapiens, UniProt O96013);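 further: value obtained within a kinome profiling panel in which PAK4 was one of the panel members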
Chain of Serine/threonine-protein kinase PAK 4 (O96013 whole entry): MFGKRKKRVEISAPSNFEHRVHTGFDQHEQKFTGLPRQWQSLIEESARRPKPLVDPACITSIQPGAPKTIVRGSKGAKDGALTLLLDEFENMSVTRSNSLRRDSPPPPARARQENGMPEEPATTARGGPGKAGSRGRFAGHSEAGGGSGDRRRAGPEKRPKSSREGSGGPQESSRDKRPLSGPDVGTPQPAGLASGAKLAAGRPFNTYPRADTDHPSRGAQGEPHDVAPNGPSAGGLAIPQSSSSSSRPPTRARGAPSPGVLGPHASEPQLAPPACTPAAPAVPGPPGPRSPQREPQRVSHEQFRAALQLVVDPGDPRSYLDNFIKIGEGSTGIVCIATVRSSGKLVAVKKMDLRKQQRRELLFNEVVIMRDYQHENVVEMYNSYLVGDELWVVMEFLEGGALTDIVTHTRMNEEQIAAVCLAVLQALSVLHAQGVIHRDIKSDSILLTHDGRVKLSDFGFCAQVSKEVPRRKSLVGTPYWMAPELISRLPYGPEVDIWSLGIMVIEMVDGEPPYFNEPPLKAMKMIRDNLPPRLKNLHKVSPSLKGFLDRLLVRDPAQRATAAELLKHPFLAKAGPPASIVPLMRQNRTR

[13] = biological target: Dual specificity protein kinase CLK4 (Homo sapiens, UniProt Q9HAZ1)
[14] = biological target: Dual specificity tyrosine-phosphorylation-regulated kinase 1A (Homo sapiens, UniProt Q13627);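 further: measured against DYRK1A as one member of a broad kinome profiling panel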
[15] = biological target: Tyrosine-protein kinase JAK3 (Homo sapiens, UniProt P52333)
Chain of Tyrosine-protein kinase JAK3 (P52333 whole entry): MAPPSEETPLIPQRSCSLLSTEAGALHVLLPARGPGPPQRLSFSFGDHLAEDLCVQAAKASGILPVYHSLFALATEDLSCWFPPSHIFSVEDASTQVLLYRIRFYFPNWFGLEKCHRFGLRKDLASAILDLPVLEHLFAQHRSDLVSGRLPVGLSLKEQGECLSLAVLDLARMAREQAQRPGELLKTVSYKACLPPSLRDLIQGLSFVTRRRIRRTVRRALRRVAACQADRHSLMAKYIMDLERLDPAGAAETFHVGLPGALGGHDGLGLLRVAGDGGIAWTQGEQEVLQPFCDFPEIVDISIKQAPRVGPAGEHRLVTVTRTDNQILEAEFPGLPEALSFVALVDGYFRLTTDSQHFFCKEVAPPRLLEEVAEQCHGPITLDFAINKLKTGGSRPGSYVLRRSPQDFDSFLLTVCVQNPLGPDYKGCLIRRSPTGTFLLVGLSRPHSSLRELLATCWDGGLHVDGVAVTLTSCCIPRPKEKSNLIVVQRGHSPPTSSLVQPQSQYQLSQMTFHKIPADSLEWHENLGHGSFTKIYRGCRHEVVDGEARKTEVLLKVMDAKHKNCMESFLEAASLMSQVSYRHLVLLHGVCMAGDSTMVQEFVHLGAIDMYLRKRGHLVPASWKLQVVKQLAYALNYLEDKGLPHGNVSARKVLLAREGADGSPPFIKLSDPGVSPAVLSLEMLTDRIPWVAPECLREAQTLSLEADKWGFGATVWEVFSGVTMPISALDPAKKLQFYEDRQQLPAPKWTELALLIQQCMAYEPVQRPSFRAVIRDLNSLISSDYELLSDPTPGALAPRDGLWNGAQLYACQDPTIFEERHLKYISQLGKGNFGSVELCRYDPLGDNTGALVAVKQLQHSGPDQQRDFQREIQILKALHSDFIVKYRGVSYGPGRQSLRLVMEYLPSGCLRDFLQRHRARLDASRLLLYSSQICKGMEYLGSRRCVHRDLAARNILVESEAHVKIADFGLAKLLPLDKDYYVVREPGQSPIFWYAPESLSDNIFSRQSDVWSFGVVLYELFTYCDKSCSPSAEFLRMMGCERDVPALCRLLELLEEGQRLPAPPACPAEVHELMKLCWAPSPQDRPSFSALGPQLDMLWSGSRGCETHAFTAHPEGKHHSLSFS

[16] = biological target: Tyrosine-protein kinase ABL1 (Homo sapiens, UniProt P00519)
[17] = biological target: Insulin-like growth factor 1 receptor (Homo sapiens, UniProt P08069); assay: Navigating the Kinome. Panel member name: IGF1R
[18] = biological target: Tyrosine-protein kinase BTK (Homo sapiens, UniProt Q06187)
Chain of Tyrosine-protein kinase BTK (Q06187 whole entry): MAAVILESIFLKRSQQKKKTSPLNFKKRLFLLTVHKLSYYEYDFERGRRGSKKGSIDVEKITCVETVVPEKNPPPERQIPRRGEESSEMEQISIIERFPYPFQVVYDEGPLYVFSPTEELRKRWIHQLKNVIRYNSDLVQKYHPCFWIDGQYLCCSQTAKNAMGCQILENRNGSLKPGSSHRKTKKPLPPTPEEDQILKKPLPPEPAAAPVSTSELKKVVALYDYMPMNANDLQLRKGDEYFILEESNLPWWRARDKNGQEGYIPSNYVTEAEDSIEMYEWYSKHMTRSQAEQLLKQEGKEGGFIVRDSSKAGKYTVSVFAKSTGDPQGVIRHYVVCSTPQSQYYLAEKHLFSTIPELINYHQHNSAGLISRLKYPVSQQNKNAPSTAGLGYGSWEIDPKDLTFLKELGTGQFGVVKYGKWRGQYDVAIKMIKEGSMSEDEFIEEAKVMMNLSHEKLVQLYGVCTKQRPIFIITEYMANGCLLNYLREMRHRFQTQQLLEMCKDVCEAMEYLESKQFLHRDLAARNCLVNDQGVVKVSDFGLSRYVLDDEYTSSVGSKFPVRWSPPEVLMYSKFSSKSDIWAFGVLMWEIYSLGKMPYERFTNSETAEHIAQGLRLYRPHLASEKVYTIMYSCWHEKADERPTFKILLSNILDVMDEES

[19] = biological target: Serine/threonine-protein kinase TBK1 (Homo sapiens, UniProt Q9UHD2); assay: Navigating the Kinome. Panel member name: TBK1
[20] = biological target: T1, Orexin/Hypocretin receptor type 1 (Homo sapiens, UniProt O43613); assay: Homogeneous Time Resolved Fluorescence (HTRF)-based cell-based high throughput dose response assay for antagonists of the orexin 1 receptor (OX1R; HCRTR1). [Related pubchem assays (depositor defined):AID434989, AID435008, AID463079, AID485270, AID492963, AID492964, AID492965, AID493232, AID504717, AID504718];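 further: antagonism measured against Orexin-A challenge at about its EC80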
T1 sequence (O43613 whole entry): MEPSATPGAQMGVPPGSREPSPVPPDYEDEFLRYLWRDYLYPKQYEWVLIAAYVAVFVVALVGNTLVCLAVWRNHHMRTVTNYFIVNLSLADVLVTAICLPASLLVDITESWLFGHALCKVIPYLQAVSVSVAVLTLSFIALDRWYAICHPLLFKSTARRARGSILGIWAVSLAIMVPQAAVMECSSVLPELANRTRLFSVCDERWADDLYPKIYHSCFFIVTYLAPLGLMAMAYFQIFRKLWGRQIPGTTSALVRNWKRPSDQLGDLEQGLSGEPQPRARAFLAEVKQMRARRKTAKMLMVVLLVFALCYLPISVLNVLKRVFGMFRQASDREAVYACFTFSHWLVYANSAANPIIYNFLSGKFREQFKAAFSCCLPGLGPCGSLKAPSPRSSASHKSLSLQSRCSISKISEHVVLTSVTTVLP

Caspase-3 = biological target: T2, Caspase-3 (Homo sapiens, UniProt P42574);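 further: Dose-response selectivity test against caspase-3 for candidate inhibitors of sentrin-specific proteases (SENPs)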
T2 sequence (P42574 whole entry): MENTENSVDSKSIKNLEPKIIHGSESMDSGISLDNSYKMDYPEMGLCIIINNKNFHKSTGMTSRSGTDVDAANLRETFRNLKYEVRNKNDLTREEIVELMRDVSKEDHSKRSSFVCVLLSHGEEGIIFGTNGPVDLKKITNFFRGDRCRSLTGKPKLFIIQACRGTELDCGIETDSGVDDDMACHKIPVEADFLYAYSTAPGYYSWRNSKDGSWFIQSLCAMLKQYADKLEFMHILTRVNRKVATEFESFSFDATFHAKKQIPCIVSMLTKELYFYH

Orexin receptor type 2 [21] = biological target: T3, Orexin receptor type 2 (Homo sapiens, UniProt O43614); assay: Counterscreen assay for antagonists of the orexin 1 receptor (OX1R; HCRTR1): Homogeneous Time Resolved Fluorescence (HTRF)-based cell-based dose response assay for antagonists of the orexin 2 receptor (OX2R; HCRTR2), run by assay provider.
T3 sequence (O43614 whole entry): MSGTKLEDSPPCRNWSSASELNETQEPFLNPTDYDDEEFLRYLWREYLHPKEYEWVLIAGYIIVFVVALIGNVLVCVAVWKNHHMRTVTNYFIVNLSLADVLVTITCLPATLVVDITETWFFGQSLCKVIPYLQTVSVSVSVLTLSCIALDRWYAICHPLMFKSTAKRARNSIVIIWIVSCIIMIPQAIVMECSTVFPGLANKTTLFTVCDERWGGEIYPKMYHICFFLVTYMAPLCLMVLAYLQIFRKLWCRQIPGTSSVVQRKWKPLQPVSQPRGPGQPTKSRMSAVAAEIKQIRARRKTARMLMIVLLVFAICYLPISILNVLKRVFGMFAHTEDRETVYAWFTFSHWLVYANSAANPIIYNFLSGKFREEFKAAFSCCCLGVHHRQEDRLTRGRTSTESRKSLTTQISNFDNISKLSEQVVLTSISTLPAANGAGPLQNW

Orexin receptor type 2 [22] = biological target: T3, Orexin receptor type 2; assay: Counterscreen assay for antagonists of the orexin 1 receptor (OX1R; HCRTR1): Fluorescence-based cell-based dose response assay for antagonists of the orexin 2 receptor (OX2R; HCRTR2), run by assay provider.

Ki [1]: > 3.98 µM (inactive)
Ki [2]: 0.158 µM (active)
Ki [3]: 3.98 µM (active)
Ki [4]: > 2.51 µM (inactive)
Ki [5]: > 2.51 µM (inactive)
Ki [6]: > 3.16 µM (inactive)
Ki [7]: 0.398 µM (active)
Ki (Activin receptor type-1): 1.26 µM (active)
Ki [8]: > 3.16 µM (inactive)
Ki [9]: 0.501 µM (active)
Ki [10]: > 3.98 µM (inactive)
Ki [11]: > 3.98 µM (inactive)
Ki [12]: > 5.01 µM (inactive)
Ki [13]: 0.0158 µM (active)
Ki [14]: 0.126 µM (active)
Ki [15]: > 5.01 µM (inactive)
Ki [16]: > 2.51 µM (inactive)
Ki [17]: > 2.51 µM (inactive)
Ki [18]: > 6.31 µM (inactive)
Ki [19]: > 3.16 µM (inactive)
SMILES: O=C(NCCc1cccs1)N1CC=C(c2c[nH]c3ncccc23)CC1

SMILES: Cc1ccnc2ccc(-c3nc4ccccc4o3)cc12
IC50 [20]: 1.1 µM (active)
IC50 (Caspase-3): 5.31 µM (active)
IC50 (Orexin receptor type 2 [21]): > 50 µM (inactive)
IC50 (Orexin receptor type 2 [22]): > 88.8 µM (inactive)
